The values that follow are results of earlier work, collected in patent US12576020B2, “Increasing the stability of agents for the treatment of keratinous material” (Henkel AG & Co. KGaA, priority 2019, dated 2026).

The conditions of this data set: 25° C.

Turning to `O=S(=O)([O-])c1ccc(N=Nc2c(O)ccc3ccccc23)cc1.[Na+]` [Acid Orange 7, sodium salt of 4-[(2-hydroxy-1-naphthyl)azo]benzene sulphonate], the solubility in water result is “more than 7 g/L”. For `Nc1cc(S(=O)(=O)[O-])cc2cc(S(=O)(=O)[O-])c(N=Nc3ccccc3)c(O)c12.[Na+].[Na+]` [Acid Red 33, disodium salt of 5-amino-4-hydroxy-3-(phenylazo)-naphthalene-2,7-disulphonate], the solubility in water is 2500 µg/mL. Take `O=C([O-])c1c(Cl)c(Cl)c(Cl)c(Cl)c1-c1c2c(Br)cc(=O)c(Br)c-2oc2c(Br)c(O)cc(Br)c12.O=C([O-])c1c(Cl)c(Cl)c(Cl)c(Cl)c1-c1c2c(Br)cc(=O)c(Br)c-2oc2c(Br)c(O)cc(Br)c12.[Na+].[Na+]` [Acid Red 92, disodium salt of 3,4,5,6-tetrachloro-2-(1,4,5,8-tetrabromo-6-hydroxy-3-oxoxanthen-9-yl)benzoic acid]: the solubility in water entry is “greater than 10 g/L”. For `O=C([O-])C1=NN(c2ccc(S(=O)(=O)[O-])cc2)C(=O)C1N=Nc1ccc(S(=O)(=O)[O-])cc1.[Na+].[Na+].[Na+]` (stereo not shown) [Acid Yellow 23, tisodium salt of 4,5-dihydro-5-oxo-1-(4-sulfophenyl)-4-((4-sulfophenyl)azo)-1H-pyrazole-3-carboxylic acid], the “solubility in water (in words)” value is “highly soluble”.
